# Results from ChEMBL document CHEMBL4411306, “High-throughput screening of novel pyruvate dehydrogenase kinases inhibitors and biological evaluation of their in vitro and in vivo antiproliferative activity” (Eur J Med Chem, 2019).
# Activity calls are given as the source filed them. The calls are words filed in the database; no cut-off is given here.
# Columns and labels:
# [1] = Inhibition of porcine PDK assessed as activation of pyruvate dehydrogenase complex measured after 3 mins; set-up: species or system Sus scrofa
# NCI-H1975 [2] = assay: Inhibition of PDK in human NCI-H1975 cells assessed as reduction in PDH phosphorylation at 10 uM after 12 hrs by Western blot analysis; format: cell-based
# [3] = biological target: T1, [Pyruvate dehydrogenase (acetyl-transferring)] kinase isozyme 2, mitochondrial (Homo sapiens, UniProt Q15119); assay: Inhibition of E2-activated human PDHK2
# [4] = Permeability across human Caco2 cells by liquid scintillation counting method; format: ADME, cell-based; conditions: caco-2
# [5] = biological target: T1, [Pyruvate dehydrogenase (acetyl-transferring)] kinase isozyme 2, mitochondrial; assay: Inhibition of recombinant human His-tagged PDK2 expressed in Escherichia coli using PDH E1 as substrate measured after 30 mins by Kinase-Glo luminescence assay
# [6] = Antiproliferative activity against human BEAS2B cells assessed as reduction in cell viability after 72 hrs by MTT assay; format: cell-based; conditions: BEAS-2B cells, read-out: GC50
# HepG2 = assay: Antiproliferative activity against human HepG2 cells assessed as reduction in cell viability after 72 hrs by MTT assay; format: functional
# A-375 = assay: Antiproliferative activity against human A375 cells assessed as reduction in cell viability after 72 hrs by MTT assay; format: functional
# [7] = biological target: T2, [Pyruvate dehydrogenase (acetyl-transferring)] kinase isozyme 1, mitochondrial (Homo sapiens, UniProt Q15118); assay: Inhibition of recombinant human His-tagged PDK1 expressed in Escherichia coli using PDH E1 as substrate measured after 30 mins by Kinase-Glo luminescence assay
# T2 sequence (Q15118 whole entry): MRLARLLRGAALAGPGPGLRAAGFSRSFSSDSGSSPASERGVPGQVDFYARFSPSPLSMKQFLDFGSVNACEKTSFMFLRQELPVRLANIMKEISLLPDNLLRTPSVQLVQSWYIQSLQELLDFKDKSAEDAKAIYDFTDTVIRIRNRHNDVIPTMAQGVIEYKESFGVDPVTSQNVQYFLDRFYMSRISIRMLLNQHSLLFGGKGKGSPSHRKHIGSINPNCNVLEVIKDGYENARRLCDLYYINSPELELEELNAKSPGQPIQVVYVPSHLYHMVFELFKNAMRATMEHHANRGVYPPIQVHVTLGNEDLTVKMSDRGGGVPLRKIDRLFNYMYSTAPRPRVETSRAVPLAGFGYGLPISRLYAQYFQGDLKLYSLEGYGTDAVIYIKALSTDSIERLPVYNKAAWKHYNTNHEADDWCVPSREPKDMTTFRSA
# [8] = biological target: [Pyruvate dehydrogenase (acetyl-transferring)] kinase isozyme 3, mitochondrial (Homo sapiens, UniProt Q15120); assay: Inhibition of recombinant human His-tagged PDK3 expressed in Escherichia coli using PDH E1 as substrate measured after 30 mins by Kinase-Glo luminescence assay
# [Pyruvate dehydrogenase (acetyl-transferring)] kinase isozyme 3, mitochondrial, sequence (Q15120 whole entry): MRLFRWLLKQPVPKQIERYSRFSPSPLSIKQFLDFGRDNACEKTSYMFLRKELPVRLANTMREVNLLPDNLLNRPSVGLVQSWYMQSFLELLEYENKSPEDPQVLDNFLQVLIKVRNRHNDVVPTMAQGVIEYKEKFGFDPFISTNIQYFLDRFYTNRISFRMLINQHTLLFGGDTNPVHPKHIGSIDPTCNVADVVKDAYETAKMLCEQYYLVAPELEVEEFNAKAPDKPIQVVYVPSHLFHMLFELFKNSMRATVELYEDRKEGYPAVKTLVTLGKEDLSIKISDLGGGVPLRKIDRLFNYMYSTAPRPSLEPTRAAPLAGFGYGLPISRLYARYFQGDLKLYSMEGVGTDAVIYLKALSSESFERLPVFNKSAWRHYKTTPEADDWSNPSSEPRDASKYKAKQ
# HCT-116 = assay: Antiproliferative activity against human HCT116 cells assessed as reduction in cell viability after 72 hrs by MTT assay; format: functional
# A549 = assay: Antiproliferative activity against human A549 cells assessed as reduction in cell viability after 72 hrs by MTT assay; format: functional
# [9] = biological target: T2, [Pyruvate dehydrogenase (acetyl-transferring)] kinase isozyme 1, mitochondrial; assay: Binding affinity to recombinant human His-tagged PDK1 expressed in Escherichia coli by isothermal calorimetry
# Heat shock protein HSP90 = Heat shock protein HSP90 (Homo sapiens, UniProt P07900+P08238); assay: Inhibition of human HSP90 measured after 30 mins by fluorescence polarization assay; format: protein assay
# NCI-H1650 = assay: Antiproliferative activity against human NCI-H1650 cells assessed as reduction in cell viability after 72 hrs by MTT assay; format: functional
# NCI-H1975 [10] = assay: Antiproliferative activity against human NCI-H1975 cells assessed as reduction in cell viability after 72 hrs by MTT assay; format: functional
# MCF7 = assay: Antiproliferative activity against human MCF7 cells assessed as reduction in cell viability after 72 hrs by MTT assay; format: functional
# [11] = biological target: [Pyruvate dehydrogenase (acetyl-transferring)] kinase isozyme 4, mitochondrial (Homo sapiens, UniProt Q16654); assay: Inhibition of recombinant human His-tagged PDK4 expressed in Escherichia coli using PDH E1 as substrate measured after 30 mins by Kinase-Glo luminescence assay
# [Pyruvate dehydrogenase (acetyl-transferring)] kinase isozyme 4, mitochondrial, sequence (Q16654 whole entry): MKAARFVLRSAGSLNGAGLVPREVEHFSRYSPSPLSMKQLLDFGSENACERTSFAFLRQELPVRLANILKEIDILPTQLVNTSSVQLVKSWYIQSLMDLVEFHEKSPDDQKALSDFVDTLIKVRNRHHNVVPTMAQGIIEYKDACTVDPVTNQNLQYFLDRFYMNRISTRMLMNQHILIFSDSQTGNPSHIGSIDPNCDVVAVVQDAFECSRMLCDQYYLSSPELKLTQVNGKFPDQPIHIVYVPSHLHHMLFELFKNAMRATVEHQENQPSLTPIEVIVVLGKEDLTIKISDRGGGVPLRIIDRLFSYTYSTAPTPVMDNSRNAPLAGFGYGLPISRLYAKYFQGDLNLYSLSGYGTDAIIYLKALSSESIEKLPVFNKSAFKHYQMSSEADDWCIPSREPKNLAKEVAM
# [12] = biological target: T2, [Pyruvate dehydrogenase (acetyl-transferring)] kinase isozyme 1, mitochondrial; conditions: NCI-H1975, 10 mM
# Description: Inhibition of PDK1 in human NCI-H1975 cells assessed as switch of pyruvate metabolism from lactate production to oxidative phosphorylation by measuring increase in oxygen consumption rates at 10 mM measured after 4 hrs by XFe24 extracellular flux analyzer based assay
# Sus scrofa = species: Sus scrofa; assay: Inhibition of porcine PDK assessed as activation of pyruvate dehydrogenase complex at 10 mM measured after 3 mins relative to control
# NCI-H1975 [13] = assay: Inhibition of PDK in human NCI-H1975 cells assessed as reduction in PDH phosphorylation at 10 mM after 12 hrs by Western blot analysis; format: cell-based
# [14] = biological target: T2, [Pyruvate dehydrogenase (acetyl-transferring)] kinase isozyme 1, mitochondrial; conditions: NCI-H1975, 10 mM; remark: listed apart in the source
# Description: Inhibition of PDK1 in human NCI-H1975 cells assessed as switch of pyruvate metabolism from lactate production to oxidative phosphorylation by measuring decrease in extracellular acidification rate at 10 mM measured after 4 hrs by XFe24 extracellular flux analyzer based assay
# NCI-H1975 [15] = assay: Inhibition of PDK in human NCI-H1975 cells assessed as reduction in PDH phosphorylation at Ser293 residue at 10 mM by ELISA; format: cell-based
# [16] = biological target: T2, [Pyruvate dehydrogenase (acetyl-transferring)] kinase isozyme 1, mitochondrial; conditions: NCI-H1975, 10 mM; remark: listed apart in the source
# Description: Inhibition of PDK1 in human NCI-H1975 cells assessed as switch of pyruvate metabolism from lactate production to oxidative phosphorylation by measuring by measuring reduction in lactate formation at 10 mM measured after 4 hrs
smiles,measurement,setting,value
CC(=O)N[C@@H](Cc1c[nH]c2ccccc12)C(=O)NCCOc1ccc(C2CCCCC2)cc1,EC50,[1],3.5 µM
same,reduction in PDH phosphorylation (qualitative),NCI-H1975 [2],Active
COc1ccc(C(=O)CSc2nnc(CNc3ccccc3OC)n2-c2ccccc2)cc1,EC50,[1],5.2 µM
same,reduction in PDH phosphorylation (qualitative),NCI-H1975 [2],Active
CCOc1ccc([C@@H]2C(C(=O)Nc3cccnc3)=C(C)Nc3nc(CCCO)nn32)cc1,EC50,[1],5.9 µM
same,reduction in PDH phosphorylation (qualitative),NCI-H1975 [2],Active
C[C@@H]1CN(C(=O)[C@](C)(O)C(F)(F)F)[C@@H](C)CN1C(=O)c1ccc(C#N)cc1,IC50,[3],0.0078 µM
COc1cccc2c1C(=O)c1c(O)c3c(c(O)c1C2=O)C[C@@](O)(C(=O)CO)C[C@@H]3O[C@H]1C[C@H](N)[C@H](O)[C@H](C)O1 [DOXORUBICIN],Papp,[4],2.1 nm/s
CN(C)C(=O)c1ccc(S(=O)(=O)c2ccc(NC(=O)[C@@](C)(O)C(F)(F)F)c(Cl)c2)cc1,IC50,[3],0.08 µM
O=C(c1ccccc1)C(Cl)Cl,EC50,[1],> 1000 µM
same,reduction in PDH phosphorylation (qualitative),NCI-H1975 [2],Active
C[C@H]1CCc2c(sc3nc(SCCN4CCCC4)n(N)c(=O)c23)C1,IC50,[5],10.5 µM
same,GI50 at 72 h,[6],> 20 µM
same,Activity,HepG2,Dose-dependent effect
same,GC50,HepG2,>20 µM
same,EC50,[1],1.6 µM
same,reduction in PDH phosphorylation (qualitative),NCI-H1975 [2],Active
same,Activity,A-375,Dose-dependent effect
same,GC50,A-375,>20 µM
same,IC50,[7],5.9 µM
same,IC50,[8],8.3 µM
same,Activity,HCT-116,Dose-dependent effect
same,GC50,HCT-116,>20 µM
same,Activity,A549,Dose-dependent effect
same,GC50,A549,>20 µM
same,Papp,[4],9.6 nm/s
same,Kd,[9],3.5 µM
same,IC50,Heat shock protein HSP90,2.7 µM
same,Activity,NCI-H1650,Dose-dependent effect
same,GC50,NCI-H1650,16.3 µM
same,Activity,NCI-H1975 [10],Dose-dependent effect
same,GC50,NCI-H1975 [10],15.6 µM
same,Activity,MCF7,Dose-dependent effect
same,GC50,MCF7,>20 µM
same,IC50,[11],14.7 µM
COc1ccc(-c2nnn(CC(=O)Nc3cccc(F)c3)n2)cc1,EC50,[1],6.9 µM
same,reduction in PDH phosphorylation (qualitative),NCI-H1975 [2],Active
CC(C)CNS(=O)(=O)c1ccc(OCC(=O)N(Cc2ccccc2)Cc2ccccc2)cc1,IC50,[5],5.9 µM
same,GI50 at 72 h,[6],> 20 µM
same,Activity,HepG2,Dose-dependent effect
same,GC50,HepG2,18.2 µM
same,EC50,[1],1.4 µM
same,reduction in PDH phosphorylation (qualitative),NCI-H1975 [2],Active
same,Activity,A-375,Dose-dependent effect
same,GC50,A-375,12.3 µM
same,IC50,[7],0.89 µM
same,IC50,[8],4.9 µM
same,Activity,HCT-116,Dose-dependent effect
same,GC50,HCT-116,>20 µM
same,Activity,A549,Dose-dependent effect
same,GC50,A549,17.5 µM
same,Papp,[4],11.4 nm/s
same,Kd,[9],1.49 µM
same,IC50,Heat shock protein HSP90,3.58 µM
same,Activity,NCI-H1650,Dose-dependent effect
same,GC50,NCI-H1650,>20 µM
same,Activity,NCI-H1975 [10],Dose-dependent effect
same,GC50,NCI-H1975 [10],>20 µM
same,Activity,MCF7,Dose-dependent effect
same,GC50,MCF7,>20 µM
same,IC50,[11],6.9 µM
O=C(Nc1ccc(Cl)cc1C(=O)N1CCCC[C@@H]1CCO)c1ccc(Cl)cc1Cl,EC50,[1],8.4 µM
same,reduction in PDH phosphorylation (qualitative),NCI-H1975 [2],Active
O=C(O)C(Cl)Cl [DICHLOROACETIC ACID],EC50,[1],> 100 µM
same,inhibition,[12],Active
same,inhibition,Sus scrofa,54.8%
same,inhibition,NCI-H1975 [13],Active
same,inhibition,[14],Active
same,inhibition,NCI-H1975 [15],Active
same,inhibition,[16],Active
CC(C)Cc1ccc(C(C)C(=O)O)cc1 (centres undefined) [IBUPROFEN],Papp,[4],472 nm/s
Cc1cnc(Cl)nc1-c1ccc(N(Cc2ccc(CNC(=O)C(F)F)cc2)C(=O)c2ccc(O)cc2O)cc1,EC50,[1],0.12 µM
Cc1ccc(NC(=O)CSc2c[nH]c(-c3ccccc3O)n2)cc1,EC50,[1],4.6 µM
same,reduction in PDH phosphorylation (qualitative),NCI-H1975 [2],Active
